What was measured:
mixed glial cells = experiment: MTS cell viability in cytokine cocktail (CK) inflammatory model, mixed glial cells; type: cell-based, rat
Protocol: Newborn male Wistar rats were sacrificed and mixed glial cell cultures were obtained from the cerebral cortices. Cerebral cortices were dissected, and meninges were cleared away. Tissues were treated with trypsin solution (trypsin 0.05% (w/v) trypsin-EDTA 5 mM) for 25 min at 37 °C. The tissue was fully disaggregated by pipetting and the dissociated cells were seeded in a 6-well plate with Dulbecco’s modified Eagle’s/High glucose medium enriched with 100 U/mL penicillin, 100 µg/mL streptomycin and 10% FBS. Fresh medium was changed the next day and then every 3 days decreasing the quantity of FBS. All experiments were carried out after 7–9 days of plating.
Mixed glial cell cultures were divided into 2 groups, one to study A1AR partial agonists and another for A2AAR antagonists. Cells from the first group were pre-treated with 2 µL at three different concentrations of C1 for 15, 30 or 60 min and then with further addition of a pro-inflammatory cocktail of cytokines (TNF-α, 20 ng/mL; IL-1β, 20 ng/mL; IFN-γ 20 ng/mL) for 48 h. […] To study C2 cells were pre-treated with the same CK cocktail for 48 h and then with 2 µL of C2 at three different concentrations for 15, 30, or 60 min (Scheme 1). ZM241385, a well known A2AAR antagonist, was used as reference compound. Furthermore, ligands and CK were tested alone for 15, 30 or 60 min and 48 h respectively.
1.7 × 10^4 mixed glial cells were cultured in 98 μL of the specific medium in a 96 well plate overnight. The next day 2 μL of ligand or CK cocktail were added to the well. After all treatments, 20 µL of CellTiter 96® AQueous One Solution Reagent was added in a final volume of 100 µL. Absorbance was read at 490 nm using the plate reader GENiosPro. Cell viability was calculated as percentage using the following formula: Cell viability =OD mean of treated cells/OD mean of control cells × 100

Sprague Dawley rats = experiment: Y Maze short-term memory in LPS neuroinflammation rat model; type: in vivo; conditions: for short-term memory impairment by LPS (novel arm preference, Y Maze) / short-term memory performance, compound alone (Y Maze): rats; for short-term memory performance, compound alone (Y Maze): saline instead of LPS
Protocol: Animal procedures were performed in accordance with the European Community guidelines (Directive 2010/63/EU), Portuguese law on animal care (DL 113/2013), and approved by the Instituto de Medicina Molecular Internal Committee and the Portuguese Animal Ethics Committee (Direcção Geral de Veterinária). Environmental conditions were kept constant: food and water ad libitum, 21 ± 0.5 °C, 60% ± 10% relative humidity, 12 h light/dark cycles, 3–5 rats per double-decker ventilated cage. Male Sprague Dawley rats 8 weeks old were divided into the following groups (Table 1):
C1 was dissolved in 5% DMSO + 95% H2O to a final concentration of 7 mg/mL and C2 was dissolved in DMSO to a final concentration of 5 mg/mL. Accordingly, vehicle for G1 was 5% DMSO + 95% H2O and for G2 was DMSO.
Animals were anesthetized with a cocktail of 75 mg/kg ketamine + 1 mg/kg dexmedetomidine. Once rats were deeply anesthetized, the head was fixed into a stereotaxic frame and an incision made on the scalp to expose the skull. Coordinates for injection were AP -1.0, ML ± 1.5, DV -3.7 mm. For G1, LPS was delivered bilaterally 5 µL of a 1 µg/µL LPS solution per hemisphere, and C1 was delivered also i.c.v. 15 min before the LPS injection, 5 µL of a 7 µg/µL solution. Flow rate was kept at 1 µL/min, using an automatic injector coupled to a 10 µL hamilton syringe gauge 30. After each injection, 5 min were allowed for diffusion of the drugs before slowly removing the needle. After the procedure, rats were sutured, administered atipamezole (1 mg/kg) to reverse anesthesia, and brought back to a heated cage until fully recovered. For G2, rats were injected i.p. with a 2.5 mg/kg solution of C2, 30 min after the i.c.v. injection of LPS 5 µg/5 µL per hemisphere, in total of 10 µg. Rats were monitored for sickness behavior (body temperature, general activity) and given access to gel food in the first 48 h.
Y Maze is a behavior test useful to measure short-term spatial working memory. Animals are introduced in the maze always in the same starting position, at the end of the start arm. An initial habituation phase of 8 min, animals freely explore 2 of the arms, the 3rd being closed. Sixty minutes after the habituation period animals are placed again in the maze for 5 min this time with all 3 arms available to exploration. Using the Smart video tracing software, each animal’s route was registered. The time spent in the arm initially closed, which for the animal is the novel, unexplored environment, is calculated in relation to the time spent in the already familiar arms.

human A1AR = molecular target: human A1AR; parameters: method as in PMID 30614535; conditions: CHO cells stably transfected with human ARs; read-out: KiA1AR; cited from earlier work
human A2AAR = molecular target: human A2AAR; parameters: method as in PMID 30614535; conditions: CHO cells stably transfected with human ARs; read-out: KiA2AAR; cited from earlier work
human A3AR = molecular target: human A3AR; parameters: method as in PMID 30614535; conditions: CHO cells stably transfected with human ARs; read-out: KiA3AR; cited from earlier work
hA1AR = system: hA1AR; parameters: method as in PMID 30614535; conditions: inhibition of adenyl cyclase activity induced by forskolin, cited from earlier work
[1] = system: mouse ileum contractility; parameters: method as in PMID 30614535; conditions: ex vivo mouse ileum; cited from earlier work
SH-SY5Y cells = system: SH-SY5Y cells; parameters: method as in PMID 30614535; conditions: different concentrations; cited from earlier work
A2AAR = A2AAR (Homo sapiens, UniProt P29274); experiment: A2AAR affinity (Ki), method not described; type: binding; conditions: unpublished results of the authors; read-out: KiA2AAR
A3AR = molecular target: T1, A3AR (Homo sapiens, UniProt P0DMS8); experiment: A3AR affinity (Ki), method not described; type: binding; conditions: unpublished results of the authors; read-out: KiA3AR
T1 sequence (P0DMS8 1-318): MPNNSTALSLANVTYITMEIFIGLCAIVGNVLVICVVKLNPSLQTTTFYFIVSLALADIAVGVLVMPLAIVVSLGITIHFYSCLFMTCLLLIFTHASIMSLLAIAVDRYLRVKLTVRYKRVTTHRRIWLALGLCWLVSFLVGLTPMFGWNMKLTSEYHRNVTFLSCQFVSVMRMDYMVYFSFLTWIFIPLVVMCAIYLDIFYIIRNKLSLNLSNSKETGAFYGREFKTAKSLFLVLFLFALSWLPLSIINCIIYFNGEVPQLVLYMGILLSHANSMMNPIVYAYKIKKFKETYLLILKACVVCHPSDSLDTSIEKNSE

Sequence of A2AAR (P29274 whole entry): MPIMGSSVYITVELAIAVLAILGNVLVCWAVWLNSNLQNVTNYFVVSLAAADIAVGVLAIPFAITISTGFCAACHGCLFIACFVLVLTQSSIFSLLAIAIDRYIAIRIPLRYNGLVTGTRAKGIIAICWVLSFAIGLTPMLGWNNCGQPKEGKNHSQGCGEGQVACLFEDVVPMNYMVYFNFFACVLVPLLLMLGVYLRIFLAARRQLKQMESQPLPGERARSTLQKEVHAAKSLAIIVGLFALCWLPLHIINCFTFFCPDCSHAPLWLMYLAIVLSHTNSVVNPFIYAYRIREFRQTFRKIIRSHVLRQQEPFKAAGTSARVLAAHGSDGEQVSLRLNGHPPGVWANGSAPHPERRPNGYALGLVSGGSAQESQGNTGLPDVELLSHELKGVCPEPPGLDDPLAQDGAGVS

Ki (A2AAR)	Ki (A3AR)	blood brain barrier (BBB) crossing (Sprague Dawley rats; inferred from rescue of CNS insult after i.p. injection in rats)	Structure (SMILES)	cell viability vs. control (mixed glial cells; pre-treatment 5.5 µM for 30 min, then CK cocktail 48 h)	prevention of CK aggression (cell viability, words) (mixed glial cells; pre-treatment before CK cocktail 48 h, C1 2-30 µM, CCPA 10 nM 30 min)	short-term memory impairment by LPS (novel arm preference, Y Maze) (Sprague Dawley rats; i.c.v. 5 µL of 7 µg/µL 15 min before i.c.v. LPS)	short-term memory performance, compound alone (Y Maze) (Sprague Dawley rats; i.c.v.)	Ki (human A1AR)	Ki (human A2AAR)	Ki (human A3AR)	α (intrinsic activity, partial agonist) (hA1AR)	EC50 (hA1AR; read-out: EC50A1AR)	maximal reduction of contractility relative to full agonist CCPA [1]	protection from oxygen-glucose deprivation (OGD) (SH-SY5Y cells)	cell viability vs. control (mixed glial cells; CK cocktail 20 ng/mL 48 h, then ligand 5 nM for 15 min)	cell viability vs. control (mixed glial cells; CK cocktail 20 ng/mL 48 h, then ligand 10 nM for 30 min)	short-term memory impairment by LPS (novel arm preference, Y Maze) (Sprague Dawley rats; 2.5 mg/kg i.p. 30 min after i.c.v. LPS)	short-term memory performance, compound alone (Y Maze) (Sprague Dawley rats; 2.5 mg/kg i.p.)
–	–	–	OC[C@H]1O[C@@H](n2cnc3c(NC4CCCC4)nc(Cl)nc32)C[C@@H]1O [Compound C1, 2-chloro-N^6-cyclopentyl-2′-deoxyadenosine]	113 ± 3.1%	able to prevent the CK aggression	rescued	reduction in the short-term memory performance	550 nM	24.8 µM	5.56 µM	0.70	832 nM	75%	protect SH-SY5Y cells from oxygen-glucose deprivation (OGD)	–	–	–	–
0.75 nM	227 nM	readily crosses the BBB	CCn1c(Cl)nc2c(N)nc(OCCc3ccccc3)nc21 [Compound C2, 8-chloro-9-ethyl-2-phenethoxyadenine]	–	–	–	–	–	–	–	–	–	–	–	138 ± 1.7%	233 ± 3.4%	rescued	devoid of any effects in memory performance

— paper PMC7409197, “Adenosine Receptors as Neuroinflammation Modulators: Role of A1 Agonists and A2A Antagonists” (Cells, 2020)
